Test results: US7119049B2, “Oxathiinecarboxamides” (Bayer Cropscience AG, priority 2002, dated 2006)
Where two headings read alike, the source gives them in different places.

Legend:
[1] = logP determination by HPLC (reversed-phase C 18), acidic range; format: physicochemical; details: pH 2.3, HPLC reversed-phase C 18, 43° C., 0.1% aqueous phosphoric acid/acetonitrile
Protocol: The logP values given in the Preparation Examples were determined in accordance with EEC Directive 79/831 Annex V.A8 by HPLC (High Performance Liquid Chromatography) using a reversed-phase column (C 18). Temperature: 43° C.
Mobile phases for the determination in the acidic range: 0.1% aqueous phosphoric acid, acetonitrile; linear gradients from 10% acetonitrile to 90% acetonitrile.
Calibration was carried out using unbranched alkan-2-ones (having 3 to 16 carbon atoms) with known logP values (determination of the logP values by the retention times using linear interpolation between two successive alkanones).

Podosphaera leucotricha = test: Podosphaera Test (Apple)/protective; format: in vivo; details: 240 h, read-out: Efficacy in %
Protocol: Podosphaera Test (Apple)/Protective
• Solvents: 24.5 Parts by weight of acetone 24.5 Parts by weight of dimethylacetamide • Emulsifier: 1.0 Part by weight of alkylaryl polyglycol ether
(§1) To produce a suitable preparation of active compound, 1 part by weight of active compound is mixed with the stated amount of solvent and emulsifier, and the concentrate is diluted with water to the desired concentration.
To test for protective activity, young plants are sprayed with the preparation of active compound at the stated application rate. After the spray coating has dried on, the plants are inoculated with an aqueous spore suspension of the apple mildew pathogen Podosphaera leucotricha. The plants are then placed in a greenhouse at about 23° C. and a relative atmospheric humidity of about 70%.
(§2) Evaluation is carried out 10 days after the inoculation. 0% means an efficacy which corresponds to that of the control, whereas an efficacy of 100% means that no infection is observed.

Venturia inaequalis = test: Venturia Test (Apple)/protective; format: in vivo; details: 240 h, read-out: Efficacy in %
Protocol: (§3) To produce a suitable preparation of active compound, 1 part by weight of active compound is mixed with the stated amounts of solvent and emulsifier, and the concentrate is diluted with water to the desired concentration.
To test for protective activity, young plants are sprayed with the preparation of active compound at the stated application rate. After the spray coating has dried on, the plants are inoculated with an aqueous conidia suspension of the apple scab pathogen Venturia inaequalis and then remain in an incubation cabin at about 20° C. and 100% relative atmospheric humidity for 1 day.
The plants are then placed in a greenhouse at about 21° C. and a relative atmospheric humidity of about 90%.
as §2

Alternaria solani = test: Alternaria Test (Tomato)/protective; format: in vivo; details: 48 h, read-out: Efficacy in %
Protocol: as §3
To test for protective activity, young tomato plants are sprayed with the preparation of active compound at the stated application rate. 1 day after the treatment, the plants are inoculated with an aqueous spore suspension of Alternaria solani. The plants are then placed in an incubation cabin at about 20° C. and 100% relative atmospheric humidity.
Evaluation is carried out 2 days after the inoculation. 0% means an efficacy which corresponds to that of the control, whereas an efficacy of 100% means that no infection is observed.

Puccinia recondita = test: Puccinia Test (Wheat)/protective; format: in vivo; details: protective, 500 g/ha, evaluation 10 days after inoculation
Protocol: as §3
(§4) To test for protective activity, young plants are sprayed with the preparation of active compound at the stated application rate. After the spray coating has dried on, the plants are sprayed with a conidia suspension of Puccinia recondita. The plants remain in an incubation cabin at 20° C. and 100% relative atmospheric humidity for 48 hours.
The plants are then placed in a greenhouse at a temperature of about 20° C. and a relative atmospheric humidity of about 80% to promote the development of rust pustules.
as §2

Pyrenophora teres = Pyrenophora teres Test (Barley)/protective; format: in vivo; details: protective, 500 g/ha, evaluation 7 days after inoculation
Protocol: as §1
as §4, with “Pyrenophora teres.” for “Puccinia recondita.”
The plants are then placed in a greenhouse at temperature of about 20° C. and a relative atmospheric humidity of about 80%.
Evaluation is carried out 7 days after the inoculation. 0% means an efficacy which corresponds to that of the control, whereas an efficacy of 100% means that no infection is observed.

**Q.** With `CC1=C(C(=O)Nc2ccccc2-c2ccc(Cl)cc2F)SCCO1` [Example 1, N-(4′-chloro-2′-fluoro-1,1′-biphenyl-2-yl)-2-methyl-5,6-dihydro-1,4-oxathiine-3-carboxamide] as the compound, how does the chromatographic logP ([1]; reversed-phase C18 HPLC column) read?
**A.** Its chromatographic logP is 3.61.

**Q.** And the pest or weed control at 100 g/ha (Podosphaera leucotricha; apple, protective, application rate 100 g/ha, evaluation 10 days after inoculation)?
**A.** Its pest or weed control at 100 g/ha is 99%.

**Q.** What about the pest or weed control at 100 g/ha (Venturia inaequalis; apple, protective, 100 g/ha, evaluation 10 days after inoculation) of the same compound?
**A.** Its pest or weed control at 100 g/ha is 100%.

**Q.** What about the pest or weed control at 100 g/ha (Alternaria solani; tomato, protective, 100 g/ha, evaluation 2 days after inoculation) of the same compound?
**A.** Its pest or weed control at 100 g/ha is 94%.

**Q.** What does the source list for `CC1=C(C(=O)Nc2ccccc2-c2ccc(Cl)c(Cl)c2)SCCO1` [Example 6]?
**A.** chromatographic logP [1]: 4.02; pest or weed control at 100 g/ha (Podosphaera leucotricha): 100%; pest or weed control at 100 g/ha (Venturia inaequalis): 100%; pest or weed control at 100 g/ha (Alternaria solani): 100%; Efficacy in % (Puccinia recondita): 100%

**Q.** Which pest or weed control at 100 g/ha (Podosphaera leucotricha) does the source give for `CC1=C(C(=O)Nc2ccccc2-c2ccc(Cl)cc2Cl)SCCO1` [Example 7] here?
**A.** Its pest or weed control at 100 g/ha is 100%.

**Q.** And the pest or weed control at 100 g/ha (Venturia inaequalis)?
**A.** The pest or weed control at 100 g/ha was 100%.

**Q.** And the pest or weed control at 100 g/ha (Alternaria solani)?
**A.** Its pest or weed control at 100 g/ha is 98%.

**Q.** Which chromatographic logP [1] does the source give for `CC1=C(C(=O)Nc2ccccc2-c2ccc(Cl)cc2C)SCCO1` [Example 8] here?
**A.** Its chromatographic logP is 4.26.

**Q.** And the pest or weed control at 100 g/ha (Podosphaera leucotricha)?
**A.** The pest or weed control at 100 g/ha was 96%.

**Q.** What about the pest or weed control at 100 g/ha (Venturia inaequalis) of the same compound?
**A.** The pest or weed control at 100 g/ha was 99%.

**Q.** What about the pest or weed control at 100 g/ha (Alternaria solani) of the same compound?
**A.** Its pest or weed control at 100 g/ha is 94%.

**Q.** With `CC1=C(C(=O)Nc2ccccc2-c2ccc(Cl)c(F)c2)SCCO1` [Example 9] as the compound, how does the chromatographic logP [1] read?
**A.** Its chromatographic logP is 3.67.

**Q.** What about the pest or weed control at 100 g/ha (Podosphaera leucotricha) of the same compound?
**A.** Its pest or weed control at 100 g/ha is 100%.

**Q.** What about the pest or weed control at 100 g/ha (Venturia inaequalis) of the same compound?
**A.** Its pest or weed control at 100 g/ha is 100%.

**Q.** What about the pest or weed control at 100 g/ha (Alternaria solani) of the same compound?
**A.** Its pest or weed control at 100 g/ha is 100%.

**Q.** What about the Efficacy in % (Pyrenophora teres) of the same compound?
**A.** Its Efficacy in % is 95%.

**Q.** What about the Efficacy in % (Puccinia recondita) of the same compound?
**A.** Its Efficacy in % is 100%.

**Q.** With `CC1=C(C(=O)Nc2ccccc2-c2ccc(F)c(Cl)c2)SCCO1` [Example 10] as the compound, how does the chromatographic logP [1] read?
**A.** The chromatographic logP was 3.7.

**Q.** And the pest or weed control at 100 g/ha (Podosphaera leucotricha)?
**A.** The pest or weed control at 100 g/ha was 93%.

**Q.** What about the pest or weed control at 100 g/ha (Venturia inaequalis) of the same compound?
**A.** Its pest or weed control at 100 g/ha is 100%.

**Q.** What about the pest or weed control at 100 g/ha (Alternaria solani) of the same compound?
**A.** Its pest or weed control at 100 g/ha is 94%.

**Q.** With `CC1=C(C(=O)Nc2ccccc2-c2ccc(F)c(F)c2)SCCO1` [Example 12] as the compound, how does the chromatographic logP [1] read?
**A.** Its chromatographic logP is 3.38.

**Q.** And the pest or weed control at 100 g/ha (Venturia inaequalis)?
**A.** The pest or weed control at 100 g/ha was 100%.

**Q.** What about the pest or weed control at 100 g/ha (Alternaria solani) of the same compound?
**A.** Its pest or weed control at 100 g/ha is 95%.

**Q.** For `CC1=C(C(=O)Nc2ccccc2-c2ccc(Cl)c(C(F)(F)F)c2)SCCO1` [Example 13], which chromatographic logP [1] is on record?
**A.** The chromatographic logP was 4.03.

**Q.** What about the pest or weed control at 100 g/ha (Venturia inaequalis) of the same compound?
**A.** The pest or weed control at 100 g/ha was 99%.

**Q.** And the pest or weed control at 100 g/ha (Alternaria solani)?
**A.** Its pest or weed control at 100 g/ha is 94%.

**Q.** For `CC1=C(C(=O)Nc2ccccc2-c2ccc(Cl)c(C)c2)SCCO1` [Example 15], which chromatographic logP [1] is on record?
**A.** Its chromatographic logP is 4.17.

**Q.** And the pest or weed control at 100 g/ha (Podosphaera leucotricha)?
**A.** The pest or weed control at 100 g/ha was 98%.

**Q.** And the pest or weed control at 100 g/ha (Venturia inaequalis)?
**A.** Its pest or weed control at 100 g/ha is 100%.

**Q.** What about the pest or weed control at 100 g/ha (Alternaria solani) of the same compound?
**A.** The pest or weed control at 100 g/ha was 96%.

**Q.** Which results are given for `CC1=C(C(=O)Nc2c(F)cccc2-c2ccc(Cl)c(Cl)c2)SCCO1` [Example 16]?
**A.** chromatographic logP [1]: 3.53; pest or weed control at 100 g/ha (Podosphaera leucotricha): 90%; pest or weed control at 100 g/ha (Venturia inaequalis): 100%; pest or weed control at 100 g/ha (Alternaria solani): 95%

**Q.** With `CC1=C(C(=O)Nc2ccccc2-c2ccc(Cl)cc2)SCCO1` [Example 17] as the compound, how does the chromatographic logP [1] read?
**A.** Its chromatographic logP is 3.69.

**Q.** And the pest or weed control at 100 g/ha (Venturia inaequalis)?
**A.** The pest or weed control at 100 g/ha was 93%.

**Q.** And the pest or weed control at 100 g/ha (Alternaria solani)?
**A.** Its pest or weed control at 100 g/ha is 93%.

**Q.** And the Efficacy in % (Pyrenophora teres)?
**A.** Its Efficacy in % is 100%.

**Q.** For `CC1=C(C(=O)Nc2ccccc2-c2ccc(C#N)cc2)SCCO1` [Example 19], which chromatographic logP [1] is on record?
**A.** The chromatographic logP was 2.74.

**Q.** What about the Efficacy in % (Pyrenophora teres) of the same compound?
**A.** Its Efficacy in % is 93%.
